Data published in US20260062387A1, “SALT-INDUCIBLE KINASE INHIBITOR COMPOUND AND PHARMACEUTICAL COMPOSITION INCLUDING THE SAME” (MITSUBISHI TANABE PHARMA CORPORATION, priority 2023, published 2026).
pIC50: −log10 of the molar value.

Experiments:
Format in all cases: biochemical
[1] = biological target: GST-tagged SIK2 (Homo sapiens (Human), UniProt Q9H0K1); assay: SIK2 inhibition test (ADP-Glo Max Assay); details: enzyme 3 nM, AMARA Peptide 200 μM, ATP 1 mM, 2 hours room temperature
Outline: (§1)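 ADP formed was detected by luciferase luminescence after a 2 h room-temperature reaction with 1 mM ATP, 5 mM MgCl2 and AMARA peptide at 200 μM (SIK1, SIK2) or 100 μM (SIK3). Final GST-enzyme levels were 20 nM SIK1, 3 nM SIK2 and 100 nM SIK3. IC50 came from 16-point concentration-response data.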

[2] = biological target: GST-tagged SIK3 (Homo sapiens (Human), UniProt Q9Y2K2); assay: SIK3 inhibition test (ADP-Glo Max Assay); details: enzyme 100 nM, AMARA Peptide 100 μM, ATP 1 mM, 2 hours room temperature
Outline: as §1

[3] = biological target: GST-tagged SIK1 (Homo sapiens (Human), UniProt P57059); assay: SIK1 inhibition test (ADP-Glo Max Assay); details: enzyme 20 nM, AMARA Peptide 200 μM, ATP 1 mM, 2 hours room temperature
Outline: as §1

GST-tagged SIK3, sequence (Q9Y2K2 whole entry): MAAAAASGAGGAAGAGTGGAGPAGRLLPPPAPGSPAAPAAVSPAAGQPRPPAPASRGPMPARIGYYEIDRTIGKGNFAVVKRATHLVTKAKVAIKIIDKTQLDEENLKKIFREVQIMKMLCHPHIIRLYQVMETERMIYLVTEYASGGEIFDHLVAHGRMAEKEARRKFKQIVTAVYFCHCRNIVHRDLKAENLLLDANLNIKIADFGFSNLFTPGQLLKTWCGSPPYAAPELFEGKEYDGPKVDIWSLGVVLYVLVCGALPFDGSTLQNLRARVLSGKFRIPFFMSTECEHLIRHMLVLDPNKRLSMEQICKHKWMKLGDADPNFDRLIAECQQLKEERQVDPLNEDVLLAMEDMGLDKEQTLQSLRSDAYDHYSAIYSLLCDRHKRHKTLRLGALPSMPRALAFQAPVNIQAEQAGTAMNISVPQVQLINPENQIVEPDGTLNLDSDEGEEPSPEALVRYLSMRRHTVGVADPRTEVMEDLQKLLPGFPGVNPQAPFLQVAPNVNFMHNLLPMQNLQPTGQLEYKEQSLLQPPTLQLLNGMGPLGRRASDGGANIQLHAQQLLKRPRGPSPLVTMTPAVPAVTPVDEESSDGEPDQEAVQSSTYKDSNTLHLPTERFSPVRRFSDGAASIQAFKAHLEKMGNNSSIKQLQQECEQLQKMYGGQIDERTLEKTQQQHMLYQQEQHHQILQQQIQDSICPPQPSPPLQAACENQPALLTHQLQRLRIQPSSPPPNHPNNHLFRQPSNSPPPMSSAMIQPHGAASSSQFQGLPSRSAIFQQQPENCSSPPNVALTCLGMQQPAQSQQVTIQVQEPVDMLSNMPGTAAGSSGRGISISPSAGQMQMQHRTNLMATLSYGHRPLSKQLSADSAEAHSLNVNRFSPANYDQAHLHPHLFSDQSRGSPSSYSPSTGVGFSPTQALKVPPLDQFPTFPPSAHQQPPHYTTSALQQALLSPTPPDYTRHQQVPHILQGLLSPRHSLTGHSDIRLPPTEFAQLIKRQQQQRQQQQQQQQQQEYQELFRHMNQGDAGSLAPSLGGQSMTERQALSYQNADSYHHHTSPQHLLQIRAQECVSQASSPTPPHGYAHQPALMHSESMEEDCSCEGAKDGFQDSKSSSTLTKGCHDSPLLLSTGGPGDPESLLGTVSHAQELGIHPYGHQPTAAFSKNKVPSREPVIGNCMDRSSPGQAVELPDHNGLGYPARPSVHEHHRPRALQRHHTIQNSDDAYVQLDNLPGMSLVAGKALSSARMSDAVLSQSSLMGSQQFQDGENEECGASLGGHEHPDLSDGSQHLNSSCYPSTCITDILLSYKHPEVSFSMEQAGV
GST-tagged SIK1, sequence (P57059 whole entry): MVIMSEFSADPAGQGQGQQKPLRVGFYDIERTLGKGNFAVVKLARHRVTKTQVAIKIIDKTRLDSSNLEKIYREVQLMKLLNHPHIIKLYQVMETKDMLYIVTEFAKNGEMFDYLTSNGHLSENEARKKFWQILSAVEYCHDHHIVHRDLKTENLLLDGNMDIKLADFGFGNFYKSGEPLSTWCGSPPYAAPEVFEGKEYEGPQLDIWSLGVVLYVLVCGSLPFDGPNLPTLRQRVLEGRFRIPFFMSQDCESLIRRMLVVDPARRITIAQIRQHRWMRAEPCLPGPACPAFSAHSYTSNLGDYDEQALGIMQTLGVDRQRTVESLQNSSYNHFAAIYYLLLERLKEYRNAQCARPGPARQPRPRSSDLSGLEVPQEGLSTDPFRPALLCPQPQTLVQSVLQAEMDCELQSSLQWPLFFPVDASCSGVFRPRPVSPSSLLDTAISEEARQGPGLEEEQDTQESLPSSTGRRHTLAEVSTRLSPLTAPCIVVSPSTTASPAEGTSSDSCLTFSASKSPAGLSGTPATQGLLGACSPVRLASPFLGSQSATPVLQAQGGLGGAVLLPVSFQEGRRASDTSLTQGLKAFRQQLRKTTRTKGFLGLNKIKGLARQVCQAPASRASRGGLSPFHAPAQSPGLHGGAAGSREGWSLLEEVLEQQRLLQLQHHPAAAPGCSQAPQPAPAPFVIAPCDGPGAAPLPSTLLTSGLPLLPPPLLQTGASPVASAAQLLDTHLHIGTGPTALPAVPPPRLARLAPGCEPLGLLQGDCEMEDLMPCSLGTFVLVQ
GST-tagged SIK2, sequence (Q9H0K1 whole entry): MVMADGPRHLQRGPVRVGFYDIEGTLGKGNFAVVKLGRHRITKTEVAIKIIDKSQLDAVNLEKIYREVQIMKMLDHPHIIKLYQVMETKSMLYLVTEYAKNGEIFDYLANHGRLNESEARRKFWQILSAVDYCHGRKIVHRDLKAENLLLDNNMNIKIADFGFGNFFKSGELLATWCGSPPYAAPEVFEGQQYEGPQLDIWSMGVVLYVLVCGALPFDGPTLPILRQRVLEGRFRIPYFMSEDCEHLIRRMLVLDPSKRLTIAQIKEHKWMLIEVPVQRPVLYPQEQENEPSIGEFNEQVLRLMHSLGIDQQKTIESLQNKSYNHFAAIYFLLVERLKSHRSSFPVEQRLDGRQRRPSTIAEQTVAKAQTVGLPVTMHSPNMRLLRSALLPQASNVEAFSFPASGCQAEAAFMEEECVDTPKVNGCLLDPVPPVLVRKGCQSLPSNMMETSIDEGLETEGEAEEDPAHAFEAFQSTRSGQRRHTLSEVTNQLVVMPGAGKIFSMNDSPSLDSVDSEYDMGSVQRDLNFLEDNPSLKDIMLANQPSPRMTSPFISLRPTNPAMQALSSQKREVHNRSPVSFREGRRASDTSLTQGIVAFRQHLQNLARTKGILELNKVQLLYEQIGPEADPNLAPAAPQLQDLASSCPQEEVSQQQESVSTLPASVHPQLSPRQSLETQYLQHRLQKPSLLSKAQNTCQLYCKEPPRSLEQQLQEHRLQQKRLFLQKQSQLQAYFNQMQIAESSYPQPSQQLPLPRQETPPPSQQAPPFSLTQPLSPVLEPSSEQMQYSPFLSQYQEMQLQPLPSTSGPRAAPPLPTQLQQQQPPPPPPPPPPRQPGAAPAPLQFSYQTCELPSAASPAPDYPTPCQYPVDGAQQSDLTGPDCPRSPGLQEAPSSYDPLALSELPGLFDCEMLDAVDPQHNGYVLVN

Row | pIC50 [1] | pIC50 [2] | pIC50 [3] | SMILES
1 | 8.89 | 8.80 | 7.98 | COc1cc(-c2c3c(C#N)cc(-c4cc[nH]n4)cc3nn2C)cc(OC(F)F)c1C(=O)N[C@@H]1CC1(F)F [Example 149, 4-[4-cyano-2-methyl-6-(1H-pyrazol-3-yl)indazol-3-yl]-N-[(1R)-2,2-difluorocyclopropyl]-2-(difluoromethoxy)-6-methoxybenzamide]
2 | 8.19 | 7.93 | 8.18 | COc1cc(-c2c3c(C#N)cc(-c4cc[nH]n4)cc3nn2C)cc(OC(F)F)c1C(=O)N[C@@H]1C[C@@H]1F [Example 24, 4-[4-cyano-2-methyl-6-(1H-pyrazol-3-yl)indazol-3-yl]-2-(difluoromethoxy)-N-[(1R,2S)-2-fluorocyclopropyl]-6-methoxybenzamide]
3 | 8.15 | 8.07 | 8.00 | COc1cc(-c2c3c(C#N)cc(-c4cnn(CCN5CCOCC5)c4)cc3nn2C)cc(OC(F)F)c1C(=O)NC[C@@H]1CC1(F)F (single isomer, unassigned) [Example 85]
4 | 7.92 | 8.64 | 7.96 | COc1cc(-c2c3c(C(F)F)cc(-c4cnn(C[C@H](C)O)c4)cc3nn2C)cc(OC(F)F)c1C(=O)N[C@@H]1CC1(F)F [Example 89, N-[(1R)-2,2-difluorocyclopropyl]-2-(difluoromethoxy)-4-[4-(difluoromethyl)-6-[1-[(2S)-2-hydroxypropyl]pyrazol-4-yl]-2-methylindazol-3-yl]-6-methoxybenzamide]
5 | 7.99 | 8.85 | 8.04 | CCn1cc(-c2cc(C#N)c3c(-c4cc(OC)c(C(=O)N5CC(O)(C(F)(F)F)C5)c(OC(F)F)c4)n(C)nc3c2)cn1 [Example 15, 3-[3-(difluoromethoxy)-4-[3-hydroxy-3-(trifluoromethyl)azetidin-1-carbonyl]-5-methoxyphenyl]-6-(1-ethylpyrazol-4-yl)-2-methylindazole-4-carbonitrile]
6 | 7.96 | 7.99 | 7.77 | COc1cc(-c2c3c(C#N)cc(-c4cnn(CC[C@@H](C)O)c4)cc3nn2C)cc(OC(F)F)c1C(=O)NCC1(F)CC1 [Example 92, 4-[4-cyano-6-[1-[(3R)-3-hydroxybutyl]pyrazol-4-yl]-2-methylindazol-3-yl]-2-(difluoromethoxy)-N-[(1-fluorocyclopropyl)methyl]-6-methoxybenzamide]
7 | 8.68 | 8.46 | 8.12 | COCCn1cc(-c2cc(C#N)c3c(-c4cc(OC(F)F)c5c(c4)[C@@H](C)CNC5=O)n(C)nc3c2)cn1 (single isomer, unassigned) [Example 173]
8 | 8.59 | 8.07 | 8.34 | COc1cc(-c2c3c(C#N)cc(-c4cnn(C(C)C)c4)cc3nn2C)cc(OC(F)F)c1C(=O)N[C@@H]1C[C@@H]1F [Example 33, 4-[4-cyano-2-methyl-6-(1-propan-2-ylpyrazol-4-yl)indazol-3-yl]-2-(difluoromethoxy)-N-[(1R,2S)-2-fluorocyclopropyl]-6-methoxybenzamide]

Further lines, the molecule ahead of its results:

Row | SMILES | pIC50 [1] | pIC50 [2] | pIC50 [3]
9 | COc1cc(-c2c3c(OCC4CCC4)cc(-c4cnn(C)c4)cc3nn2C)cc(OC(F)F)c1C(=O)N1CC(O)(C(F)(F)F)C1 [Example 27, [4-[4-(cyclobutylmethoxy)-2-methyl-6-(1-methylpyrazol-4-yl)indazol-3-yl]-2-(difluoromethoxy)-6-methoxyphenyl]-[3-hydroxy-3-(trifluoromethyl)azetidin-1-yl]methanone] | 7.90 | 7.80 | 7.86
10 | COc1cc(-c2c3c(OCc4cncc(F)c4)cc(-c4cnn(C)c4)cc3nn2C)cc(OC(F)F)c1C(=O)N1CC(O)(C(F)(F)F)C1 [Example 103, [2-(difluoromethoxy)-4-[4-[(5-fluoropyridin-3-yl)methoxy]-2-methyl-6-(1-methylpyrazol-4-yl)indazol-3-yl]-6-methoxyphenyl]-[3-hydroxy-3-(trifluoromethyl)azetidin-1-yl]methanone] | 8.80 | 8.32 | 8.36
11 | COc1cc(-c2c3c(OCc4cnccn4)cc(-c4cnn(C)c4)cc3nn2C)cc(OC(F)F)c1C(=O)N1CC(O)(C(F)(F)F)C1 [Example 48, [2-(difluoromethoxy)-6-methoxy-4-[2-methyl-6-(1-methylpyrazol-4-yl)-4-(pyrazin-2-ylmethoxy)indazol-3-yl]phenyl]-[3-hydroxy-3-(trifluoromethyl)azetidin-1-yl]methanone] | 7.97 | 7.95 | 8.46
12 | COc1cc(-c2c3c(OC)cc(-c4cnn(C)c4)cc3nn2C)cc(OC(F)F)c1C(=O)N1CC(O)(C(F)F)C1 [Example 37, [2-(difluoromethoxy)-6-methoxy-4-[4-methoxy-2-methyl-6-(1-methylpyrazol-4-yl)indazol-3-yl]phenyl]-[3-(difluoromethyl)-3-hydroxyazetidin-1-yl]methanone] | 8.08 | 7.89 | 8.10
13 | COc1cc(-c2c3c(OCC4CC4)cc(-c4cnn(C)c4)cc3nn2C)cc(OC(F)F)c1C(=O)N1CC(O)(C(F)(F)F)C1 [Example 29, [4-[4-(cyclopropylmethoxy)-2-methyl-6-(1-methylpyrazol-4-yl)indazol-3-yl]-2-(difluoromethoxy)-6-methoxyphenyl]-[3-hydroxy-3-(trifluoromethyl)azetidin-1-yl]methanone] | 7.99 | 7.88 | 8.07
14 | COc1cc(-c2c3c(OCc4nnc(C)o4)cc(-c4cnn(C)c4)cc3nn2C)cc(OC(F)F)c1C(=O)N1CC(O)(C(F)(F)F)C1 [Example 53, [2-(difluoromethoxy)-6-methoxy-4-[2-methyl-4-[(5-methyl-1,3,4-oxadiazol-2-yl)methoxy]-6-(1-methylpyrazol-4-yl)indazol-3-yl]phenyl]-[3-hydroxy-3-(trifluoromethyl)azetidin-1-yl]methanone] | 8.14 | 7.87 | 8.04
15 | COc1cc(-c2c3c(OCCCCO)cc(-c4cnn(C)c4)cc3nn2C)cc(OC(F)F)c1C(=O)N1CC(O)(C(F)(F)F)C1 [Example 44, [2-(difluoromethoxy)-4-[4-(4-hydroxybutoxy)-2-methyl-6-(1-methylpyrazol-4-yl)indazol-3-yl]-6-methoxyphenyl]-[3-hydroxy-3-(trifluoromethyl)azetidin-1-yl]methanone] | 8.08 | 7.81 | 8.17
16 | COCCn1cc(-c2cc(OC)c3c(-c4cc(OC(F)F)c5c(c4)[C@@H](C)CNC5=O)n(C)nc3c2)cn1 (single isomer, unassigned) [Example 178] | 8.33 | 7.81 | 8.00
17 | COc1cc(-c2c3c(C#N)cc(-c4cnn(CC(F)(F)F)c4)cc3nn2C)cc2c1C(=O)NC[C@@H]2C (single isomer, unassigned) [Example 126] | 8.82 | 8.29 | 8.14
18 | COc1cc(-c2c3c(OC(C)C)cc(-c4cnn(C)c4)cc3nn2C)cc(OC(F)F)c1C(=O)N1CC(O)(C(F)(F)F)C1 [Example 43, [2-(difluoromethoxy)-6-methoxy-4-[2-methyl-6-(1-methylpyrazol-4-yl)-4-propan-2-yloxyindazol-3-yl]phenyl]-[3-hydroxy-3-(trifluoromethyl)azetidin-1-yl]methanone] | 7.71 | 7.70 | 8.62
